Experimental findings from patent US7125695B2, “Directed evolution of microorganisms” (Genencor International, Inc., priority 1999, dated 2006) are described below.

For data set [1], the target named is T1, Escherichia blattae 1,3-propanediol dehydrogenase (PDD, dhaT), mutant PDD from evolved strain GEB031 (ATCC PTA-92), SEQ ID NO:4 (Shimwellia blattae, UniProt Q3ZL59, H105L).
T1 construct: no tag
Put plainly: PDD comparison, 1,3-propanediol dehydrogenase from evolved strain GEB031. The class given is biochemical, Escherichia blattae GEB031 (ATCC PTA-92). Particulars: PDD from evolved strain GEB031, compared with wild type E. blattae. The method, then:
(§1) Strains—Wild type ATCC 33429, E. blattae comprising the mutant PDD as described in Example 4 and having ATCC accession number PTA-92.
(§2) Growth—Cells were grown in a complex medium at 30C 500 ml in a 2800 ml fernbach with shaking at 225 rpm for 20 hr. The medium consists of KH2PO4, 5.4 g/L; (NH4)2SO4, 1.2 g/L; MgSO47H2O, 0.4 g/L; yeast extract, 2.0 g/L; tryptone, 2.0 g/L; and glycerol, 9.2 g/L in tap water. The pH was adjusted to 7.1 with KOH before autoclaving (Honda, et al., 1980, J. Bacteriol, 143:1458–1465).
(§3) Extract prep—Cells were harvested by centrifugation with care to avoid anaerobic conditions. Pellets were resuspended in 100 mM Tricine pH 8.2 containing 50 mM KCl and 1 mM DTT. Cells were disrupted by passage through a French pressure cell. Crude extracts were clarified by centrifugation at 20K×g for 20 min followed by 100K×g for 1 hr to yield the high speed supernatant (HSS) fraction.
(§4) Assays—the assay for PDD was performed as described by Johnson, E. A. et al., 1987, J. Bacteriol. 169:2050–2054.
(§5) Partial purification of PDD—HSS was separated on a 16×100 Poros 20HQ column. The buffers were A, 50 mM HEPES, pH 7.4 containing 100 uM MnCl and B, A buffer containing 500 mM KCl. The column was loaded and developed at 10 ml/min. The gradient was 10 CV wash, a linear gradient to 70% B in 10 CV, and 1 CV to 100% B. The activity was detected in the very early fractions of the gradient. […]

Another data set relates to wild-type E. blattae. Put plainly: Viability (plate counts) of wild-type E. blattae during glycerol fermentation with accumulation of 3HPA. The format is cell-based, Escherichia blattae ATCC 33429. Particulars: anaerobic glycerol fermentation, 30° C., 3HPA accumulated to 50 mM. As to the method:
FIG. 5—Glycerol fermentation of E. blattae at pH 7.0. Culture conditions are described in the text. Plate counts were by serial dilution and performed in triplicate on Luria agar plates. Substrate and 0products were measured by HPLC.
The wild-type E. blattae and the evolved E. blattae were subjected to fermentation in the following medium: 75 g glycerol, 5 g K2HPO4.3H2O, 3 g KH2PO4, 2 g (NH4)2SO4, 0.4 g MgSO4.7H2O, 0.2 g CaCl2.2H2O, 4 mg CoCl2.2H2O, 2 g yeast extract, and 1 g peptone per liter water. The pH was maintained with 20% NaOH. Both fermentations were run at 30° C. with a N2 sparge and were inoculated with a stationary grown overnight preculture.
The wild-type E. blattae accumulated 3HPA and stopped growing and metabolizing glycerol. The accumulation of 3HPA was high and reached 50 mM. […] After the culture had consumed all of the glycerol more was added and the culture continued converting glycerol to 1,3-propanediol.

Substrate in data set [2]: NC(=O)c1ccc[n+]([C@@H]2O[C@H](COP(=O)([O-])OP(=O)(O)OC[C@H]3O[C@@H](n4cnc5c(N)ncnc54)[C@H](O)[C@@H]3O)[C@@H](O)[C@H]2O)c1
The data set can be described thus: PDD kinetics, partially purified 1,3-propanediol dehydrogenase from wild type strain 33429. Particulars: other: PDD of wild type strain 33429; cofactor NAD; 30.0 °C. The format is biochemical, Escherichia blattae ATCC 33429. The method, then:
as §1, §2, §3, §4, §5

Substrate in data set [3]: OCCCO
Described as above. The class given is biochemical, Escherichia blattae ATCC 33429. Particulars: other: PDD of wild type strain 33429; substrate 1,3-propanediol; 30.0 °C. As to the method: as §1, §2, §3, §4, §5

T1 sequence (Q3ZL59 entry or part of it H105L): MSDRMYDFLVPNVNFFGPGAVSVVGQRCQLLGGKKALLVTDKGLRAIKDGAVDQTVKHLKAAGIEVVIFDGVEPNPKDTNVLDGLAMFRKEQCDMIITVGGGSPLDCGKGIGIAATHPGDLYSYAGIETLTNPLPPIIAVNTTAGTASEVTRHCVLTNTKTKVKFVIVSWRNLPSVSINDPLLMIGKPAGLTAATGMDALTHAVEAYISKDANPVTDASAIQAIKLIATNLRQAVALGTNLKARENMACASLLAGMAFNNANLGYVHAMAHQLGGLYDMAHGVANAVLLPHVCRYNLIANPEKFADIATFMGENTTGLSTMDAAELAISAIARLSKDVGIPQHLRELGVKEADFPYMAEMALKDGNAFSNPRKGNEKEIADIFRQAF

Consider `OCCCO` [1,3-propanediol], for which, in data set [1], the “Km for 1,3-propanediol” value is “higher”.
Turning to `O=CCCO` [3HPA, 3-hydroxy-propionaldehyde], in the data set on wild-type E. blattae, the “toxicity of accumulated 3HPA (plate counts)” value was “toxic”.

B1: Escherichia blattae 1,3-propanediol dehydrogenase (PDD, dhaT), wild type, strain ATCC 33429 (Shimwellia blattae) (protein)
chain: MSDRMYDFLVPNVNFFGPGAVSVVGQRCQLLGGKKALLVTDKGLRAIKDGAVDQTVKHLKAAGIEVVIFDGVEPNPKDTNVLDGLAMFRKEQCDMIITVGGGSPHDCGKGIGIAATHPGDLYSYAGIETLTNPLPPIIAVNTTAGTASEVTRHCVLTNTKTKVKFVIVSWRNLPSVSINDPLLMIGKPAGLTAATGMDALTHAVEAYISKDANPVTDASAIQAIKLIATNLRQAVALGTNLKARENMACASLLAGMAFNNANLGYVHAMAHQLGGLYDMAHGVANAVLLPHVCRYNLIANPEKFADIATFMGENTTGLSTMDAAELAISAIARLSKDVGIPQHLRELGVKEADFPYMAEMALKDGNAFSNPRKGNEKEIADIFRQAF
notes: no tag
Consider B1, for which the figures for the Km in data set [2] and in data set [3] were 0.057 mM and 28 mM, respectively.
